From the supplement of paper PMC11451515

Columns and labels:
Conditions in all cases: 48 h
SEM cells [1] = assay: cell viability relative to DMSO control; higher = less cytotoxic
Outline: (§1)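 NOMO1 or SEM cells were plated at 500 cells/well and P12-Ichikawa cells at 1000 cells/well in 1536-well plates (5 μl), after each leukemia line had been adapted for at least four passages in each medium. Pin dosing delivered library compounds in DMSO at 11 threefold concentrations, 47 μM to 0.79 nM. CellTiter-Glo One luminescence was read after 48 h at 37°C. Viability is reported as a per-plate percentage of DMSO wells, with cell-free wells as background.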

SEM cells [2] = assay: AUC of viability dose-response curve (% viability x log10 dose units); higher = less sensitive
Outline: (§2)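 Medium-adapted leukemia cells in 1536-well plates, at 500 or 1000 cells/well, were incubated for 48 h at 37°C with library compounds in DMSO at 11 threefold doses from 47 μM to 0.79 nM. CellTiter-Glo One luminescence normalised per plate to DMSO and cell-free wells was fitted with a four-parameter log-logistic model over log10 doses. Area under the curve was integrated from this fit by trapezoidal rule, with curves beyond full viability scaled and failed quality-control curves removed.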

NOMO1 [3] = assay: as above
Outline: as §2

P12-Ichikawa [4] = assay: as above
Outline: as §2

NOMO1 [5] = assay: cell viability relative to DMSO control; higher = less cytotoxic
Outline: as §1

P12-Ichikawa [6] = assay: as above
Outline: as §1

C\C1=N\N(C(=O)C1)C2=CC=CC=C2
cell viability [%], SEM cells [1]
Conditions	HPLM + 10% dialyzed FBS	RPMI 5 mM glucose + 10% FBS
0.000781 µM	102	113
0.00234 µM	104	121
0.00702 µM	121	129
0.0211 µM	136	119
0.0632 µM	130	130
0.19 µM	121	117
0.569 µM	112	121
1.71 µM	130	123
5.12 µM	121	132
15.4 µM	118	130
46.1 µM	111	117

AUC of viability dose-response curve
Conditions	NOMO1 [3]	P12-Ichikawa [4]	SEM cells [2]
HPLM + 10% dialyzed FBS	467	471	465
RPMI 5 mM glucose + 10% FBS	467	458	465
RPMI 5 mM glucose + 10% dialyzed FBS	462	473	473

O=C1C(CCC(O)c2ccc(F)cc2)C(c2ccc(O)cc2)N1c1ccc(F)cc1 (centres undefined)
cell viability [%]
Conditions	NOMO1 [5]	P12-Ichikawa [6]	SEM cells [1]
HPLM + 10% dialyzed FBS, 0.000781 µM	111	108	107
HPLM + 10% dialyzed FBS, 0.00234 µM	104	112	97.3
HPLM + 10% dialyzed FBS, 0.00702 µM	123	114	110
HPLM + 10% dialyzed FBS, 0.0211 µM	124	116	112
HPLM + 10% dialyzed FBS, 0.0632 µM	113	119	103
HPLM + 10% dialyzed FBS, 0.19 µM	132	124	109
HPLM + 10% dialyzed FBS, 0.569 µM	133	117	108
HPLM + 10% dialyzed FBS, 1.71 µM	132	117	101
HPLM + 10% dialyzed FBS, 5.12 µM	146	117	113
HPLM + 10% dialyzed FBS, 15.4 µM	132	120	102
HPLM + 10% dialyzed FBS, 46.1 µM	47.5	106	104
RPMI 5 mM glucose + 10% FBS, 0.000781 µM	114	114	81.4
RPMI 5 mM glucose + 10% FBS, 0.00234 µM	114	117	98.2
RPMI 5 mM glucose + 10% FBS, 0.00702 µM	108	123	96
RPMI 5 mM glucose + 10% FBS, 0.0211 µM	106	118	111
RPMI 5 mM glucose + 10% FBS, 0.0632 µM	110	122	92.9
RPMI 5 mM glucose + 10% FBS, 0.19 µM	120	121	100
RPMI 5 mM glucose + 10% FBS, 0.569 µM	112	126	101
RPMI 5 mM glucose + 10% FBS, 1.71 µM	122	121	97.1
RPMI 5 mM glucose + 10% FBS, 5.12 µM	122	127	114
RPMI 5 mM glucose + 10% FBS, 15.4 µM	130	121	98.8
RPMI 5 mM glucose + 10% FBS, 46.1 µM	127	117	101
RPMI 5 mM glucose + 10% dialyzed FBS, 0.000781 µM	101	101	106
RPMI 5 mM glucose + 10% dialyzed FBS, 0.00234 µM	98.9	106	113
RPMI 5 mM glucose + 10% dialyzed FBS, 0.00702 µM	107	105	121
RPMI 5 mM glucose + 10% dialyzed FBS, 0.0211 µM	113	117	121
RPMI 5 mM glucose + 10% dialyzed FBS, 0.0632 µM	92.7	118	128
RPMI 5 mM glucose + 10% dialyzed FBS, 0.19 µM	118	111	113
RPMI 5 mM glucose + 10% dialyzed FBS, 0.569 µM	111	120	115
RPMI 5 mM glucose + 10% dialyzed FBS, 1.71 µM	103	116	121
RPMI 5 mM glucose + 10% dialyzed FBS, 5.12 µM	117	124	113
RPMI 5 mM glucose + 10% dialyzed FBS, 15.4 µM	106	114	108
RPMI 5 mM glucose + 10% dialyzed FBS, 46.1 µM	103	106	108

AUC of viability dose-response curve
Conditions	NOMO1 [3]	P12-Ichikawa [4]	SEM cells [2]
HPLM + 10% dialyzed FBS	461	472	477
RPMI 5 mM glucose + 10% FBS	435	472	470
RPMI 5 mM glucose + 10% dialyzed FBS	469	465	466
